In patent publication US20240116985A1, “STAPLED PEPTIDES AND METHODS THEREOF” (priority 2020, published 2024):
pIC50: −log10 of the molar value. ≈ marks a conversion by molar mass, not a printed value. Where “and” joins values, the source holds several entries; their conditions need not be identical. Identical values can stand only once. Like-named read-outs stand apart in the source and are kept apart here.

Tests used:
[1] = CHI Log D procedure; format: physicochemical; details: for chromatographic logD: pH 7.4, CHI Log D
[2] = Solubility in PBS; format: physicochemical
In short: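 Read-out is the HPLC peak area of the supernatant from ultracentrifuged PBS solution, scaled against a 50 μM peptide DMSO injection; value reported as [(PBS area)/(DMSO area)]*50 uM.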

[3] = target: T1, full-length beta-Catenin (Uniprot ID P35222) (Homo sapiens, UniProt P35222); experiment: Fluorescence polarization IC50 (beta-catenin / 5FAM-TCF4 10-53 competition); format: binding
T1 construct: 10 nM full-length beta-Catenin (Uniprot ID P35222)
T1 sequence (P35222 1-781): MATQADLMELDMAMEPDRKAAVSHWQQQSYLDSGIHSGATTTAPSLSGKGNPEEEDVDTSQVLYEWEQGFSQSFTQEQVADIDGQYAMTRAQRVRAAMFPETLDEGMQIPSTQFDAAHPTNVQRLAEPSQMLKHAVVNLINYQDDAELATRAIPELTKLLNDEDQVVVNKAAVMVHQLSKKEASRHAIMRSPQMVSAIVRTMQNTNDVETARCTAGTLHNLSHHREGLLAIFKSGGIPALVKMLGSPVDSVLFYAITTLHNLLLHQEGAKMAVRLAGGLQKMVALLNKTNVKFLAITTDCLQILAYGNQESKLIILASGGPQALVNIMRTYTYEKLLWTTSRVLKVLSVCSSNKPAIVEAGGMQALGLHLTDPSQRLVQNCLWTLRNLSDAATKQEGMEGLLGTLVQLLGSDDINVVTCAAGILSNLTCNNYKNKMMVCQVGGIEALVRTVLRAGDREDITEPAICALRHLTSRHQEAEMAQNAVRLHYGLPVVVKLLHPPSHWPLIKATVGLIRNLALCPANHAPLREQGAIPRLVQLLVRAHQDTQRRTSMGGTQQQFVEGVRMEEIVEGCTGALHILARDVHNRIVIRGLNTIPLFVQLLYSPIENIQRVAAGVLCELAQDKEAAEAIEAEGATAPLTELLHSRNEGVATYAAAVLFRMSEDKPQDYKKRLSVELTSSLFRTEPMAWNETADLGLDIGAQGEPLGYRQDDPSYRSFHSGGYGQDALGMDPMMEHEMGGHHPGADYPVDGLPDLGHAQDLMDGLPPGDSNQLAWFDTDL

[4] = tested on: TCF/LEF luciferase Reporter in DLD1 cells; experiment: TCF reporter assay (DLD1 TCF/LEF luciferase reporter, Bright-Glo); format: cell-based; details: for DLD1 TCF c2 BrightGlo % Inhibition: replicates
In short: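 Readouts: Bright-Glo luciferase for reporter signal and CellTiter-Glo for cell viability, with absolute IC50 derived. The reporter clone came from lentiviral TCF/LEF-luciferase transduction of DLD1 cells, seeded 5000 cells/well in RPMI with 4% FBS and exposed overnight to serially diluted compounds.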

[5] = target: T2, beta-catenin/TCF4 engagement (Homo sapiens, UniProt P35222); experiment: Nano-BRET target engagement assay (B-cat-Halo & TCF4-Luc in HEK293 cells); format: cell-based
T2 construct: expressed in transfected cells; host or cells: HEK293
T2 sequence (P35222 1-781): T1 sequence (P35222 1-781)

[6] = absolute IC50, read-out: DLD1 reporter assay Abs IC50
[7] = first dose = 20 uM (plate map), 20 µM
[8] = read-out: DLD1 4% Abs IC50, DLD1 4%
[9] = third dose = 5 uM (plate map), 5 µM
[10] = absolute IC50, read-out: NanoBRET Abs IC50

Structure (SMILES) | CHI Log D ([1]; pH 7.4) | Solubility [2] [µM] | pIC50 ([3]; fluorescence polarization, beta-catenin, read-out: FP EC50) | pIC50 ([3]; read-out: beta-Catenin FP IC50) | pIC50 [4, 6] | DLD1 TCF c2 BrightGlo % Inhibition [4, 7] | pIC50 [4, 8] | DLD1 TCF c2 BrightGlo % Inhibition ([4]; 0.625 µM) | DLD1 TCF c2 BrightGlo % Inhibition ([4]; 1.25 µM) | DLD1 TCF c2 BrightGlo % Inhibition ([4]; 2.5 µM) | DLD1 TCF c2 BrightGlo % Inhibition ([4]; 10 µM) | DLD1 TCF c2 BrightGlo % Inhibition [4, 9] | pIC50 [5, 10] | pIC50 ([5]; read-out: NanoBRET Abs IC50) | chromatographic logD [1] | Solubility ([2]; Solubility (uM)) [µM] | pIC50 ([5]; read-out: NanoBRET IC50)
CC(=O)N1CCC[C@]12CC=CCCCC1(CCCC=CCCCCCC[C@@](C)(C(=O)N[C@@H](Cc3ccccc3Cl)C(=O)N[C@@H](Cc3csc4ccccc34)C(=O)N[C@@H](CCO)C(N)=O)NC(=O)[C@H](CO)NC(=O)[C@H](Cc3ccccc3)NC(=O)[C@H](C)NC(=O)[C@H](C)NC(=O)[C@H](CN(CC(=O)O)CC(F)(F)F)NC(=O)[C@H](CC(=O)O)NC1=O)NC(=O)[C@H](CC(C)(C)C)NC(=O)[C@H](CC(=O)O)NC2=O (single isomer, unassigned) [I-999, Ac-PL3-Asp-Npg-B5-Asp-TfeGA-Ala-Ala-Phe-Ser-S8-2C1F-BztA-Hse-NH2] | 2.941 | 30 (≈ 58.8 µg/mL) | 7.59 | 7.59 | 4.95 | 63.2% and 71.4% and 68.9% | 5.25 | 7.7% and 8.8% and 6.4% | 1.7% and 8.0% and 4.0% | 14.3% and 11.9% and 4.4% | 42.0% and 49.2% and 49.7% | 18.2% and 32.5% and 23.9% | 4.58 | 4.58 |  |  | 
CC(=O)N1CCC[C@]12CC=CCCCC1(CCCC=CCCCOC(=O)N3CC[C@@](C(=O)N[C@@H](Cc4ccccc4Cl)C(=O)N[C@@H](Cc4csc5ccccc45)C(=O)N[C@H](CO)[C@@H](C)O)(C3)NC(=O)[C@H](CC(N)=O)NC(=O)[C@H](Cc3ccccc3)NC(=O)[C@H](C)NC(=O)[C@H](C)NC(=O)[C@H](CC(=O)O)NC(=O)[C@H](CC(=O)O)NC1=O)NC(=O)[C@H](CC(C)(C)C)NC(=O)[C@H](CC(=O)O)NC2=O (stereo partly drawn) [I-1082, Ac-PL3-Asp-Npg-B5-Asp-Asp-Ala-Ala-Phe-Asn-PyrS2-2C1F-BztA-Thro1] |  |  |  | 8.30 | 5.32 | 76.5% and 77.1% and 79.9% |  | 14.1% and 17.4% and 20.3% | 14.0% and 21.5% and 24.0% | 17.3% and 36.1% and 37.9% | 63.9% and 71.0% and 75.0% | 38.5% and 56.2% and 62.0% | 4.85 |  | 2.33 | 48 (≈ 91.5 µg/mL) | 
CC(=O)N1CCC[C@]12CC=CCCCC1(CCCC=CCCCOC(=O)N3CC[C@@](C(=O)N[C@@H](Cc4ccccc4Cl)C(=O)N[C@@H](Cc4csc5ccccc45)C(=O)N[C@@H](CCC(N)=O)C(N)=O)(C3)NC(=O)[C@H](CO)NC(=O)[C@H](Cc3ccccc3)NC(=O)[C@H](C)NC(=O)[C@H](C)NC(=O)[C@H](CC(=O)O)NC(=O)[C@H](CC(=O)O)NC1=O)NC(=O)[C@H](CC(C)(C)C)NC(=O)[C@H](CC(=O)O)NC2=O (stereo partly drawn) [I-1017, Ac-PL3-Asp-Npg-B5-Asp-Asp-Ala-Ala-Phe-Ser-PyrS2-2C1F-BztA-Gln-NH2] |  |  |  | 8.30 | < 4.70 |  |  |  |  |  |  |  | 5.05 |  | 2.11 | 48 (≈ 92.1 µg/mL) | 
CC(=O)N1CCC[C@]12CC=CCCCC1(CCCC=CCCCOC(=O)N3CC[C@@](C(=O)N[C@@H](Cc4ccccc4Cl)C(=O)N[C@@H](Cc4csc5ccccc45)C(=O)N[C@@H](CCC(N)=O)C(N)=O)(C3)NC(=O)[C@H](CC(N)=O)NC(=O)[C@H](Cc3ccccc3)NC(=O)[C@H](C)NC(=O)[C@H](Cc3ccccc3)NC(=O)[C@H](CN(CC(=O)O)CC(F)(F)F)NC(=O)[C@H](CC(=O)O)NC1=O)NC(=O)[C@H](CC(C)(C)C)NC(=O)[C@H](CC(=O)O)NC2=O (stereo partly drawn) [I-1008, Ac-PL3-Asp-Npg-B5-Asp-TfeGA-Phe-Ala-Phe-Asn-PyrS2-2C1F-BztA-Gln-NH2] |  |  |  | 8.05 | 4.89 |  | 5.33 |  |  |  |  |  | 4.85 |  | 2.43 | 34 (≈ 72.5 µg/mL) | 
CC(=O)N1CCC[C@]12CC=CCCCC1(CCCC=CCCCOC(=O)N3CC[C@@](C(=O)N[C@@H](Cc4ccccc4)C(=O)N[C@@H](Cc4csc5ccccc45)C(=O)N[C@@H](CCC(N)=O)C(N)=O)(C3)NC(=O)[C@H](Cc3ccccc3)NC(=O)[C@H](Cc3ccccc3)NC(=O)[C@H](C)NC(=O)[C@H](C)NC(=O)[C@H](CN(CC(=O)O)CC(F)(F)F)NC(=O)[C@H](CC(=O)O)NC1=O)NC(=O)[C@H](CC(C)(C)C)NC(=O)[C@H](CC(=O)O)NC2=O (stereo partly drawn) [I-988, Ac-PL3-Asp-Npg-B5-Asp-TfeGA-Ala-Ala-Phe-Phe-PyrS2-Phe-BztA-Gln-NH2] |  |  |  | 8.30 | 5.28 | 78.1% and 81.3% and 81.9% |  | 11.0% and 10.7% and 15.5% | 5.7% and 22.3% and 21.2% | 13.3% and 28.8% and 33.4% | 61.5% and 72.0% and 76.2% | 32.0% and 57.8% and 62.0% | 4.86 |  | 2.35 | 11 (≈ 22.6 µg/mL) | 
CC(=O)N1CCC[C@]12CC=CCCCC1(CCCC=CCCCOC(=O)N3CC[C@@](C(=O)N[C@@H](Cc4ccccc4Cl)C(=O)N[C@@H](Cc4csc5ccccc45)C(=O)N[C@@H](C(N)=O)[C@H](C)O)(C3)NC(=O)[C@H](CC(N)=O)NC(=O)[C@H](Cc3ccccc3)NC(=O)[C@H](C)NC(=O)[C@H](C)NC(=O)[C@H](CC(=O)O)NC(=O)[C@H](CCC(=O)O)NC1=O)NC(=O)[C@H](CC(C)(C)C)NC(=O)[C@H](CC(=O)O)NC2=O (stereo partly drawn) [I-1030, Ac-PL3-Asp-Npg-B5-Glu-Asp-Ala-Ala-Phe-Asn-PyrS2-2C1F-BztA-dThr-NH2] |  |  |  | 6.29 | < 4.70 |  |  |  |  |  |  |  | < 4.70 |  | 2.76 | 47 (≈ 90.9 µg/mL) | 
CCNC(=O)[C@H](CCC(N)=O)NC(=O)[C@H](Cc1csc2ccccc12)NC(=O)[C@H](Cc1ccccc1Cl)NC(=O)[C@]12CCN(C1)C(=O)OCCCC=CCCCC1(CCCC=CC[C@]3(CCCN3C(C)=O)C(=O)N[C@@H](CC(=O)O)C(=O)N[C@@H](CC(C)(C)C)C(=O)N1)C(=O)N[C@@H](CC(=O)O)C(=O)N[C@@H](CC(=O)O)C(=O)N[C@@H](C)C(=O)N[C@@H](C)C(=O)N[C@@H](Cc1ccccc1)C(=O)N[C@@H](CC(N)=O)C(=O)N2 (stereo partly drawn) [I-1079, Ac-PL3-Asp-Npg-B5-Asp-Asp-Ala-Ala-Phe-Asn-PyrS2-2C1F-BztA-Gln-NHEt] |  |  |  | 8.30 | 4.84 | 55.6% and 58.1% and 54.7% |  | 1.4% and 6.9% and 6.8% | 1.4% and −0.6% and 2.6% | −25.7% and −0.8% and 5.1% | 34.2% and 39.4% and 42.0% | 7.4% and 16.0% and 26.5% | 4.71 |  | 2.5 | 45 (≈ 88.9 µg/mL) | 
CC(=O)N1CCC[C@]12CC=CCCCC1(CCCC=CCCCOC(=O)N3CC[C@@](C(=O)N[C@@H](Cc4ccsc4)C(=O)N[C@@H](Cc4csc5ccccc45)C(=O)N[C@H](C(N)=O)[C@@H](C)O)(C3)NC(=O)[C@H](CC(N)=O)NC(=O)[C@H](Cc3ccccc3)NC(=O)[C@H](C)NC(=O)[C@H](C)NC(=O)[C@H](CC(=O)O)NC(=O)[C@H](CC(=O)O)NC1=O)NC(=O)[C@H](CC(C)(C)C)NC(=O)[C@H](CC(=O)O)NC2=O (stereo partly drawn) [I-814, Ac-PL3-Asp-Npg-B5-Asp-Asp-Ala-Ala-Phe-Asn-PyrS2-3Thi-BztA-Thr-NH2] |  |  |  | 8.15 |  |  | 4.78 |  |  |  |  |  |  | 4.72 | 2.1 | 47 (≈ 88.9 µg/mL) | 4.90
CC(=O)N1CCC[C@]12CC=CCCCC1(CCCC=CCCCOC(=O)N3CC[C@@](C(=O)N[C@@H](Cc4ccccc4Cl)C(=O)N[C@@H](Cc4csc5ccccc45)C(=O)N[C@@H](CO)C(N)=O)(C3)NC(=O)[C@H]([C@@H](C)O)NC(=O)[C@H](Cc3ccccc3)NC(=O)[C@H](C)NC(=O)[C@H](C)NC(=O)[C@H](CC(=O)O)NC(=O)[C@H](CC(=O)O)NC1=O)NC(=O)[C@H](CC1CCCCC1)NC(=O)[C@H](CC(=O)O)NC2=O (stereo partly drawn) [I-1048, Ac-PL3-Asp-Cha-B5-Asp-Asp-Ala-Ala-Phe-Thr-PyrS2-2C1F-BztA-Ser-NH2] |  |  |  | 8.30 | 4.98 |  |  |  |  |  |  |  | 5.06 |  | 2.52 | 42 (≈ 80.6 µg/mL) | 
